Data reported in patent US20220160812A1, “A PHARMACEUTICALLY ACTIVE SUBSTANCE” (Cytopharma GmbH, priority 2019, published 2022).
Entries after “also recorded” stand apart in the source; their conditions may differ.

Experiments:
[1] = tested on: human breast carcinoma cells (MDA-MB-231); assay: subG1 cell cycle FACS apoptosis assay, MDA-MB-231 cells; format: cell-based; conditions: about 24 hours; for apoptosis-inducing activity (subG1) relative to peptides SEQID No 28 and SEQID No 1: MDA-MB-231, SEQID No 41 at 50 μM versus monomeric peptides at 100 μM, FIG. 18
Procedure: (§1) The adherent cells (A375 and BxPC-3 cells and MDA-MB-231, respectively) are seeded 24 hours before induction in 6-well plates in culture medium. For this, the cells are washed with PBS, then incubated with trypsin/EDTA solution at 37 degrees Celsius and suspended in culture medium. The 6-well plates are loaded with 1×10^5 cells/cm^2 in culture medium and the cells incubated for 24 hours until induction with the peptides in the incubator. For induction, the peptides are diluted in fresh culture medium. As control solutions, culture medium without peptide (DMSO-containing) in culture medium or etoposide solution is added. The cells are washed with PBS. Thereafter the peptide solution in culture medium is added to the cells. After incubation in the incubator (37° C., 5% CO2) between 1.5 and 24 hours, the cell supernatant is transferred to 15 ml centrifuge tubes, the cells are washed with 0.75 ml PBS and then with 0.5 ml versene solution. Both washings are combined with the cell supernatant. The cells are then added with 0.5 ml of trypsin/EDTA solution and incubated at about 37° C. for at most 10 minutes until the cells detached. The cell suspension is combined with cell supernatant and washings and centrifuged at about 130 g for about 10 minutes. After removing the supernatant, the cells are suspended in 400 μl of cell culture medium (without serum) and mixed with 1.2 ml of 80% ethanol/20% PBS (v/v) and incubated for 1 to 7 days at −20° C. For analysis, the cells are centrifuged at 130 g for 10 min, suspended in 2 ml PBS, and centrifuged again for 5 min. The cells are suspended in 700 μl PI buffer and incubated for 10 min at 37° C. in the dark. Subsequently, the cells are stored dark for a maximum of four hours in an ice bath, then the FACS analysis is performed.
The second method analyzes the cell cycle phases which is drawn from the relative DNA content. Cells labeled by a fluorescent dye, using either DAPI or propidium iodide (PI) were analyzed by a cell sorter. The protocols for cell cultivation, treatment and preparation and staining of the cells for the flow cytometry is given in separate examples. […] When cells die by apoptosis, cellular changes lead to diminished DNA content resulting in a new peak located before the G0/G1 peak, often called “subG1” peak (Broecker-Preuss et al. 2015; Darzynkiewicz et al., 1992; Dbaibo et al. 1998; Fischbeck et al. 2011).
The “Flowing Software 2” program is used to draw from the raw data of the flow cytometer an FSC/SSC plot. This first step is performed in order to analyze a selected cell fraction excluding cells with both small FSC and small SSC values. Therefore, a gating area is drawn in a two-dimensional FSC/SSC plot (region R-1) which contains mainly intact cells, but no small vesicles. This is initially done for each cell type using reference cells which were not incubated with substances inducing cell death. By this selection of the cell fraction, a bias is prevented which would include a very high number of small cellular vesicles (apoptotic bodies) that are formed by membrane blebbing from dying cells, which have a low DNA content but which, by their large number, would increase the fraction of presumptive subG1 cells. […] In this DNA content plot, an analytical region is drawn in the area of lower DNA content to count the cells that show a subG1 peak, as illustrated in FIG. 1. The fraction of apoptotic cells is defined as the fraction of cells with DNA content in the subG1 region as part of the total number of cells in the DNA content plot (FIG. 1).
The evaluation of the FACS analysis to determine the subG1 data was also carried out with the program Flowing Software, version 2.5.1. The fluorescence in the respective analysis channel for DAPI or propidium iodide was plotted as a histogram, the data from the respectively defined region R-1 being utilized (see FIG. 1). […]

[2] = tested on: BxPC-3 human pancreatic cancer cells; assay: subG1 cell cycle FACS apoptosis assay, BxPC-3 cells; format: cell-based; conditions: BxPC-3, Protocol B, about 24 hours; for apoptosis-inducing activity (subG1) relative to peptides SEQID No 28 and SEQID No 27: SEQID No 41 at 50 μM versus monomeric peptides at 100 μM, FIG. 19
Procedure: (§2) To transfer adherent cells (A375 and BxPC-3 cells) after culture, cells are washed twice with PBS. To detach the cells, the enzyme biotase is used according to the manufacturer's instructions. For this purpose, after washing with PBS, the cells are mixed with biotase (5 ml of biotase solution per 75 cm^2 surface of the cell culture bottles) and incubated for 5 min at 37 degrees Celsius, and the biotase is separated by centrifugation. Cells cultivated in suspension (MEC-1 and lymphocytes) were transferred by dilution. The cells are suspended in culture medium and counted, each time 1.5×10^5 cells/cm^2 are seeded in 48-well plates and cultured for between 1.5 and 24 hours at 37 degrees Celsius, 5% CO2. Peptides are pre-diluted from stock solution with culture medium and 200 μl of peptide solution added so that final concentrations of 30 to 500 μM peptide are present in at most 1% (v/v) DMSO. As control solutions, culture medium without peptide (DMSO-containing) in culture medium or etoposide solution is added. After incubating the cells for several hours, the cell supernatant is transferred to a FACS tube for each batch and, after washing the cells with PBS, the wash solution is added. Then the cells are incubated with 200 μl of biotase solution for 10 min, 37° C., the cells with the biotase are also transferred to the FACS tube and the cells are collected by centrifugation for 5 min. The cell pellet is suspended in 500 μl of serum-free culture medium, then 1.5 ml of cold 80% ethanol (ethanol/PBS-80/20, v/v, stored at −20° C.) is added, the FACS tubes sealed and stored at −20 degrees Celsius for 15 to 18 h. Thereafter, the cells are centrifuged for 5 minutes at 120 g, suspended after removal of the supernatant in 2 ml PBS and incubated at 37 degrees Celsius for 30 minutes. After re-centrifugation, the cells are suspended in 0.5 ml DAPI solution and incubated for 15 min at 20 degrees Celsius in the dark. Thereafter, the cells are stored dark for a maximum of four hours in an ice bath, followed by the FACS analysis.
as §1, with “performed. […]” for “performed.”

A375 melanoma cells = assay: subG1 cell cycle FACS apoptosis assay, A375 melanoma cells; format: cell-based, human; conditions: A375, Protocol B, 100 μM, about 24 hours, FIG. 2
Procedure: as §2, §1
The proportion of cells which have died was determined by two methods, both rely on the analysis of cells by flow cytometry, often called FACS analysis. […]

k-k-w-m-v-v-y-f-r-k-s-g-s-g-s-k-k-w-m-v-v-y-f-r-k [SEQID No 41]
apoptosis-inducing activity (subG1) relative to peptides SEQID No 28 and SEQID No 1 [1]: at least double | apoptosis-inducing activity (subG1) relative to peptides SEQID No 28 and SEQID No 1 ([1]; listed as dimeric peptide): more than two-fold | apoptosis-inducing activity (subG1) relative to peptides SEQID No 28 and SEQID No 27 [2]: at least double | apoptosis-inducing activity (subG1) relative to peptides SEQID No 28 and SEQID No 27 ([2]; listed as dimeric peptide): more than two-fold

k-m-v-v-y-f-r [SEQID No 2]
apoptosis-inducing activity (subG1), comparison in words ([1]; MDA-MB-231, 200 μM, FIG. 13): increased apoptosis-inducing activity compared to the peptide SEQ C1 | apoptosis induction (subG1), comparison in words ([2]; 100 μM, FIG. 14): stronger apoptosis induction compared to SEQ C1

k-w-m-v-v-y-f-r [SEQID No 9]
apoptosis efficiency (subG1), comparison in words (A375 melanoma cells): extraordinary increased activity compared to peptide SEQ C1 | apoptosis efficiency (subG1) in view of Peptide SEQ C1 ([2]; 100 μM, FIG. 14): at least fourfold | apoptosis efficiency (subG1) in view of Peptide SEQ No 12 ([2]; 100 μM, FIG. 14): at least threefold | apoptosis induction (subG1), comparison in words ([2]; 100 μM, FIG. 14): stronger apoptosis induction compared to SEQ C1; also recorded: strongly improved activity compared to peptide SEQID No 1

m-v-v-y-f-r-k [SEQID No 4]
apoptosis-inducing activity (subG1), comparison in words ([1]; MDA-MB-231, 200 μM, FIG. 13): increased apoptosis-inducing activity compared to the peptide SEQ C1

m-v-v-y-f-r-w [SEQID No 3]
apoptosis-inducing activity (subG1), comparison in words ([1]; MDA-MB-231, 200 μM, FIG. 13): increased apoptosis-inducing activity compared to the peptide SEQ C1 | apoptosis induction (subG1), comparison in words ([2]; 100 μM, FIG. 14): stronger apoptosis induction compared to SEQ C1

q-k-w-m-v-v-y-f-r-k [SEQID No 28]
apoptosis-inducing activity (subG1), comparison in words ([1]; MDA-MB-231, 100 μM, FIG. 15): higher apoptosis-inducing activity | apoptosis-inducing activity (subG1), comparison in words ([1]; MDA-MB-231, 100 μM, FIG. 15, listed as SEQID NO 28): improvement over SEQID NO 27

r-a-s-k-s-q-t-v-k-k-w-m-v-v-y-f-r-k-s-a-r [SEQID No 35]
apoptosis efficiency (subG1), in words ([2]; 100 and 200 μM, Examples 107-110): slightly higher apoptosis than the peptide sequence SEQID NO 33; also recorded: considerable efficiency to induce apoptosis in pancreatic cancer cells

r-s-t-q-k-w-m-v-v-y-f-r-k [SEQID No 40]
apoptosis-inducing activity (subG1), comparison in words ([1]; MDA-MB-231, 100 μM, FIG. 16, listed as SEQID 40): slightly smaller efficiency than SEQID No 33 | apoptosis efficiency (subG1), comparison in words ([2]; 100 μM, FIG. 17): weaker activity

w-m-v-v-y-f-r [SEQID No 1]
apoptosis-inducing activity (subG1), comparison in words ([1]; MDA-MB-231, 200 μM, FIG. 13): increased apoptosis-inducing activity compared to the peptide SEQ C1 | apoptosis induction (subG1), comparison in words ([2]; 100 μM, FIG. 14): stronger apoptosis induction compared to SEQ C1

w-w-m-v-v-y-f-r [SEQID No 12]
apoptosis-inducing activity (subG1), comparison in words ([1]; MDA-MB-231, 200 μM, FIG. 13): slightly decreased activity compared to peptide SEQID No 1; also recorded: remarkably improved efficiency than SEQ C1 | apoptosis induction (subG1), comparison in words ([2]; 100 μM, FIG. 14): stronger apoptosis induction compared to SEQ C1
